Data taken from patent publication US7964531B2, “3-phenoxy-4-pyridazinol derivatives and herbicidal composition containing the same” (Mitsui Chemicals Agro, Inc., priority 2001, dated 2011).
One block for each compound: values may come before it.

Assays:
[1] = system: transplanted paddy-field rice; assay: Test Example 1: crop injury against transplanted paddy-field rice; assay type: in vivo; conditions: wettable powder applied 3 days after transplanting, judged after 25 days
Description: (§1) A paddy soil was filled in 1/10,000 are pot, and seeds of barnyardgrass (Echinochloa oryzicola Vasing.), Scirpus joncoides and annual broad-leaved weeds (Lindernia spp., Rotala indica) which are awaken from dormancy were mixed at the surface layer of 1 cm. Also, tuber of Cyperus serotinus which is germinated was planted, and further seedlings of paddy-field rice at 2.2-leaf stage were transplanted, and they were grown under the flooded condition in a greenhouse. After 3 days from transplanting, a predetermined chemical dosage of the wettable powder prepared in accordance with Preparation example 1 was diluted in water, and the solution was applied to the pot and herbicidal effects and crop injury against transplanted paddy-field rice were judged after 25 days from the treatment. Also, 3-(2-allylphenoxy)-6-chloro-4-methoxypyridazine described in Chemical Pharmaceutical Bulletin, 1972, vol. 20, No. 10, pp. 2191-2203 was used as Comparative compound. Incidentally, herbicidal effects and crop injury against transplanted paddy-field rice were judged by the following judgment standard, and “-” in the table means no test was carried out.
(§2) Judgment Standard • 0: Growth inhibition rate; 0 to 10% • 1: Growth inhibition rate; 11 to 30% • 2: Growth inhibition rate; 31 to 50% • 3: Growth inhibition rate; 51 to 70% • 4: Growth inhibition rate; 71 to 90% • 5: Growth inhibition rate; 91 to 100%.

[2] = system: annual broad-leaved weeds (Lindernia spp., Rotala indica); assay: Test Example 1: herbicidal effects, paddy-field pot test; assay type: in vivo; conditions: wettable powder applied 3 days after transplanting, judged after 25 days
Description: as §1, §2

[3] = system: barnyardgrass (Echinochloa oryzicola Vasing.); assay: as above; assay type: in vivo; conditions: wettable powder applied 3 days after transplanting, judged after 25 days
Description: as §1, §2

Cyperus serotinus = assay: as above; assay type: in vivo; conditions: wettable powder applied 3 days after transplanting, judged after 25 days
Description: as §1, §2

SMILES: CCc1cc(I)cc(I)c1Oc1nnc(Cl)cc1O [Example 316]
Crop injury against transplanted rice ([1]; chemical dosage 10 g/a): 0 (Growth inhibition rate; 0 to 10%)
Crop injury against transplanted rice ([1]; chemical dosage 20 g/a): 0 (Growth inhibition rate; 0 to 10%)
Herbicidal effects Broad leaf ([2]; chemical dosage 10 g/a): 5 (Growth inhibition rate; 91 to 100%)
Herbicidal effects Broad leaf ([2]; chemical dosage 20 g/a): 5 (Growth inhibition rate; 91 to 100%)
Herbicidal effects Barnyard grass ([3]; chemical dosage 10 g/a): 2 (Growth inhibition rate; 31 to 50%)
Herbicidal effects Barnyard grass ([3]; chemical dosage 20 g/a): 3 (Growth inhibition rate; 51 to 70%)

SMILES: Oc1cc(Cl)nnc1Oc1c(Br)cccc1Br [Example 248]
Crop injury against transplanted rice ([1]; chemical dosage 5 g/a): 0 (Growth inhibition rate; 0 to 10%)
Crop injury against transplanted rice ([1]; chemical dosage 10 g/a): 0 (Growth inhibition rate; 0 to 10%)
Herbicidal effects Broad leaf ([2]; chemical dosage 5 g/a): 5 (Growth inhibition rate; 91 to 100%)
Herbicidal effects Broad leaf ([2]; chemical dosage 10 g/a): 5 (Growth inhibition rate; 91 to 100%)
Herbicidal effects Cyperus serotinus (Cyperus serotinus; chemical dosage 5 g/a): 5 (Growth inhibition rate; 91 to 100%)
Herbicidal effects Cyperus serotinus (Cyperus serotinus; chemical dosage 10 g/a): 5 (Growth inhibition rate; 91 to 100%)
Herbicidal effects Barnyard grass ([3]; chemical dosage 5 g/a): 1 (Growth inhibition rate; 11 to 30%)
Herbicidal effects Barnyard grass ([3]; chemical dosage 10 g/a): 3 (Growth inhibition rate; 51 to 70%)

SMILES: Cc1cc(C)c(Oc2nnc(Cl)cc2O)c(Br)c1 [Example 315]
Crop injury against transplanted rice ([1]; chemical dosage 20 g/a): 0 (Growth inhibition rate; 0 to 10%)
Herbicidal effects Broad leaf ([2]; chemical dosage 20 g/a): 5 (Growth inhibition rate; 91 to 100%)
Herbicidal effects Cyperus serotinus (Cyperus serotinus; chemical dosage 20 g/a): 5 (Growth inhibition rate; 91 to 100%)
Herbicidal effects Barnyard grass ([3]; chemical dosage 20 g/a): 4 (Growth inhibition rate; 71 to 90%)

SMILES: Oc1cc(Cl)nnc1Oc1c(F)cc(C2CC2)cc1C1CC1 [Example 313]
Crop injury against transplanted rice ([1]; chemical dosage 20 g/a): 0 (Growth inhibition rate; 0 to 10%)
Herbicidal effects Broad leaf ([2]; chemical dosage 20 g/a): 5 (Growth inhibition rate; 91 to 100%)
Herbicidal effects Barnyard grass ([3]; chemical dosage 20 g/a): 1 (Growth inhibition rate; 11 to 30%)

SMILES: Cc1ccc(Oc2nnc(Cl)cc2O)c(C2CC2)c1 [Example 202]
Crop injury against transplanted rice ([1]; chemical dosage 10 g/a): 0 (Growth inhibition rate; 0 to 10%)
Herbicidal effects Broad leaf ([2]; chemical dosage 10 g/a): 5 (Growth inhibition rate; 91 to 100%)
Herbicidal effects Cyperus serotinus (Cyperus serotinus; chemical dosage 10 g/a): 4 (Growth inhibition rate; 71 to 90%)
Herbicidal effects Barnyard grass ([3]; chemical dosage 10 g/a): 2 (Growth inhibition rate; 31 to 50%)

SMILES: Oc1cc(Cl)nnc1Oc1cccc2c1CC1CC21 (centres unmarked) [Example 15]
Crop injury against transplanted rice ([1]; chemical dosage 10 g/a): 0 (Growth inhibition rate; 0 to 10%)
Herbicidal effects Broad leaf ([2]; chemical dosage 10 g/a): 5 (Growth inhibition rate; 91 to 100%)
Herbicidal effects Cyperus serotinus (Cyperus serotinus; chemical dosage 10 g/a): 5 (Growth inhibition rate; 91 to 100%)
Herbicidal effects Barnyard grass ([3]; chemical dosage 10 g/a): 1 (Growth inhibition rate; 11 to 30%)

SMILES: Oc1cc(Cl)nnc1Oc1cccc(C(F)(F)F)c1F [Compound No. 441, 6-Chloro-3-[2-fluoro-3-(trifluoromethyl)phenoxy]-4-pyridazinol]
melting point: 185 to 189 °C

SMILES: CC(C)c1cccc(I)c1Oc1nnc(Cl)cc1O [Compound No. 782, 6-Chloro-3-(2-iodo-6-isopropylphenoxy)-4-pyridazinol]
melting point: 250 to 255 °C

SMILES: CCc1ccc(OC)cc1Oc1nnc(Cl)cc1O [Compound No. 635, 6-Chloro-3-(2-ethyl-5-methoxyphenoxy)-4-pyridazinol]
melting point: 124 to 126 °C

SMILES: Cc1cccc(C2CC2)c1Oc1nnc(Cl)cc1OC(=O)c1cnccc1C(F)(F)F [Compound No. 3462, 6-Chloro-3-(2-cyclopropyl-6-methylphenoxy)-4-pyridazinyl 4-(trifluoromethyl)nicotinate]
melting point: 92 to 93 °C

SMILES: CC(C)c1ccc(Oc2nnc(Cl)cc2O)cc1 [Compound No. 432, 6-Chloro-3-(4-isopropylphenoxy)-4-pyridazinol]
melting point: 233 to 235 °C

SMILES: CC(C)(C)c1cccc(C2CC2)c1Oc1nnc(Cl)cc1O [Compound No. 914, 3-(2-tert-Butyl-6-cyclopropylphenoxy)-6-chloro-4-pyridazinol]
melting point: 230 to 231 °C

SMILES: CS(=O)(=O)Oc1cc(Cl)nnc1Oc1ccccc1C1CC1 [Compound No. 1985, 6-Chloro-3-(2-cyclopropylphenoxy)-4-pyridazinyl methanesulfonate]
melting point: 162 to 172 °C

SMILES: COc1cccc(OC)c1C(=O)Oc1cc(Cl)nnc1Oc1c(C)cccc1C1CC1 [Compound No. 3162, 6-Chloro-3-(2-cyclopropyl-6-methylphenoxy)-4-pyridazinyl 2,6-dimethoxybenzoate]
melting point: 127 to 128 °C

SMILES: CC(C)c1cccc(I)c1Oc1nnc(Cl)cc1O [Example 258]
Crop injury against transplanted rice ([1]; chemical dosage 10 g/a): 0 (Growth inhibition rate; 0 to 10%)
Herbicidal effects Broad leaf ([2]; chemical dosage 10 g/a): 5 (Growth inhibition rate; 91 to 100%)
Herbicidal effects Barnyard grass ([3]; chemical dosage 10 g/a): 3 (Growth inhibition rate; 51 to 70%)

SMILES: COc1ccc(Oc2nnc(Cl)cc2O)cc1 [Compound No. 435, 6-Chloro-3-(4-methoxyphenoxy)-4-pyridazinol]
melting point: 260 to 263.5 °C

SMILES: Cc1ccc2occc2c1Oc1nnc(Cl)cc1O [Compound No. 1109, 6-Chloro-3-[(5-methyl-1-benzofuran-4-yl)oxy]-4-pyridazinol]
melting point: 222 to 225 °C

SMILES: Oc1cc(Cl)nnc1Oc1cccc(C(F)(F)F)c1Cl [Compound No. 446, 6-Chloro-3-[2-chloro-3-(trifluoromethyl)phenoxy]-4-pyridazinol]
melting point: 170 to 200 °C

SMILES: COc1cscc1C(=O)Oc1cc(Cl)nnc1Oc1c(C)cccc1C1CC1 [Compound No. 3378, 6-Chloro-3-(2-cyclopropyl-6-methylphenoxy)-4-pyridazinyl 4-methoxy-3-thiophenecarboxylate]
melting point: 146 to 149 °C

SMILES: C=C(C)Cc1cccc(Cl)c1Oc1nnc(Cl)cc1O [Compound No. 746, 6-Chloro-3-[2-chloro-6-(2-methyl-2-propenyl)phenoxy]-4-pyridazinol]
melting point: 198 to 200 °C

SMILES: Cc1cccc(C2CC2)c1Oc1nnc(Cl)cc1OC(=O)CC(C)C [Compound No. 1184, 6-Chloro-3-(2-cyclopropyl-6-methylphenoxy)-4-pyridazinyl 3-methylbutanoate]
melting point: 71 to 74 °C

SMILES: Cc1cc(C)c(Cl)c(Oc2nnc(Cl)cc2O)c1C [Compound No. 2599, 6-Chloro-3-(2-chloro-3,5,6-trimethylphenoxy)-4-pyridazinol]
melting point: 298 to 300 °C

SMILES: Cc1cc(C)c(Oc2nnc(Cl)cc2O)c(C)c1 [Compound No. 1122, 6-Chloro-3-(2,4,6-trimethylphenoxy)-4-pyridazinol]
melting point: 235 to 239 °C

More lines, now with the values ahead:

melting point: 190 to 194 °C
SMILES: COc1cccc(F)c1Oc1nnc(Cl)cc1O [Compound No. 732, 6-Chloro-3-(2-fluoro-6-methoxyphenoxy)-4-pyridazinol]

melting point: 181 to 183 °C
SMILES: Oc1cc(Cl)nnc1Oc1cccc2sccc12 [Compound No. 534, 3-(1-Benzothien-4-yloxy)-6-chloro-4-pyridazinol]

melting point: 204 to 206 °C
SMILES: CC=Cc1ccccc1Oc1nnc(Cl)cc1O [Compound No. 305, 6-Chloro-3-[2-(1-propenyl)phenoxy}-4-pyridazinol]

melting point: 199 to 201 °C
SMILES: COc1cccc(Oc2nnc(Cl)cc2O)c1OC [Compound No. 503, 6-Chloro-3-(2,3-dimethoxyphenoxy)-4-pyridazinol]

melting point: 215 to 216 °C
SMILES: Oc1cc(Cl)nnc1Oc1ccccc1C1CC1(F)F (centres unmarked) [Compound No. 264, 6-Chloro-3-[2-(2,2-difluorocyclopropyl)phenoxy]-4-pyridazinol]

melting point: 197 to 198 °C
SMILES: Cc1cccc(Oc2nnc(Cl)cc2O)c1C1CC1 [Compound No. 472, 6-Chloro-3-(2-cyclopropyl-3-methylphenoxy)-4-pyridazinol]

melting point: 162 to 165 °C
SMILES: CCC1(c2ccccc2Oc2nnc(Cl)cc2O)CC1 [Compound No. 145, 6-Chloro-3-[2-(1-ethylcyclopropyl)phenoxy]-4-pyridazinol]

melting point: 201 to 203 °C
SMILES: Oc1cc(Cl)nnc1Oc1ccccc1Br [Compound No. 126, 3-(2-Bromophenoxy)-6-chloro-4-pyridazinol]

melting point: 215 to 225 °C
SMILES: CC(C)c1cc(Br)ccc1Oc1nnc(Cl)cc1O [Compound No. 566, 3-(4-Bromo-2-isopropylphenoxy)-6-chloro-4-pyridazinol]

melting point: 261 to 263 °C
SMILES: Cc1ccc(Oc2nnc(Cl)cc2O)cc1 [Compound No. 430, 6-Chloro-3-(4-methylphenoxy)-4-pyridazinol]

melting point: 180 to 182 °C
SMILES: Oc1cc(Cl)nnc1Oc1ccccc1C1(C2CC2)CC1 [Compound No. 151, 6-Chloro-3-{2-[1-(cyclopropyl)cyclopropyl]phenoxy}-4-pyridazinol]

melting point: 187 to 188 °C
SMILES: CC1(C)CC1c1ccccc1Oc1nnc(Cl)cc1O (centres unmarked) [Compound No. 267, 6-Chloro-3-[2-(2,2-dimethylcyclopropyl)phenoxy]-4-pyridazinol]

melting point: 143 to 145 °C
SMILES: Oc1cc(Cl)nnc1Oc1ccccc1C1OCCO1 [Compound No. 329, 6-Chloro-3-[2-(1,3-dioxolan-2-yl)phenoxy]-4-pyridazinol]

melting point: 197 to 198 °C
SMILES: Cc1ccccc1Oc1nnc(Br)cc1O [Compound No. 2411, 6-Bromo-3-(2-methylphenoxy)-4-pyridazinol]
